Values after ≈ are worked out from the molar mass of the structure shown.
Experiments:
[1] = target: Cannabinoid receptor 1 (Homo sapiens, UniProt P21554); experiment: Binding affinity to human CB1 receptor expressed in CHO cells by radioligand displacement based scintillation counting analysis; assay type: cell-based
[2] = Lipophilicity, log P of the compound by HPLC analysis; assay type: physicochemical
[3] = tested on: Rattus norvegicus; experiment: Reduction in food intake in nonfasted po dosed Sprague-Dawley rat measured for 20 hrs; assay type: functional; conditions: read-out: MED
[4] = Terminal half life in Sprague-Dawley rat at 3 mg/kg, iv; assay type: ADME, organism-based; parameters: dose 3 mg/kg, route intravenous; conditions: in vivo, read-out: beta t1/2 (converted)
[5] = Aqueous solubility of the compound; assay type: physicochemical; conditions: buffer
[6] = Clearance in Sprague-Dawley rat at 3 mg/kg, iv; conditions: in vivo
[7] = tested on: Liver microsome; experiment: Clearance in rat liver microsomes at 1 to 3 uM after 20 mins by LC/MS/MS analysis
[8] = tested on: Rattus norvegicus; experiment: Reduction in food intake in nonfasted po dosed Sprague-Dawley rat measured for 8 hrs; assay type: functional; conditions: read-out: MED
[9] = tested on: Rattus norvegicus; experiment: Reduction in food intake in nonfasted Sprague-Dawley rat at 10 mg/kg, po measured for 8 hrs; assay type: functional; parameters: scale not given: the % may be the effect or the level left
[10] = target: Cytochrome P450 2C19 (Homo sapiens, UniProt P33261); experiment: Inhibition of human recombinant CYP2C19; assay type: ADME
[11] = target: Cytochrome P450 2C9 (Homo sapiens, UniProt P11712); experiment: Inhibition of human recombinant CYP2C9; assay type: ADME
[12] = target: T1, Cytochrome P450 3A4 (Homo sapiens, UniProt P08684); experiment: Inhibition of CYP3A4 in human hepatocytes; assay type: ADME, cell-based, Hepatocyte
[13] = tested on: Rattus norvegicus; experiment: Antiobesity activity in rat assessed as reduction in food intake at 10 mg/kg; assay type: functional; parameters: scale not given: the % may be the effect or the level left
[14] = tested on: Rattus norvegicus; experiment: Antiobesity activity in rat assessed as reduction in body weight at 10 mg/kg, qd after 4 days; assay type: functional; parameters: scale not given: the % may be the effect or the level left
[15] = Cmax in rat at 10 mg/kg, qd; assay type: ADME, organism-based; parameters: dose 10 mg/kg; conditions: in vivo
[16] = AUC (0 to 24 hrs) in rat at 10 mg/kg, qd; assay type: ADME, organism-based; parameters: time < 24 hr, dose 10 mg/kg; conditions: plasma
[17] = Oral bioavailability in Sprague-Dawley rat; assay type: ADME, organism-based; conditions: in vivo
[18] = Oral bioavailability in dog; assay type: ADME, organism-based, Canis lupus familiaris; conditions: in vivo
[19] = Oral bioavailability in cynomolgus monkey; assay type: ADME, organism-based, Macaca fascicularis; conditions: in vivo
[20] = Elimination half life in iv dosed dog; assay type: ADME, organism-based, Canis lupus familiaris; conditions: in vivo, read-out: beta t1/2 (converted)
[21] = Elimination half life in iv dosed cynomolgus monkey; assay type: ADME, organism-based, Macaca fascicularis; conditions: in vivo, read-out: beta t1/2 (converted)
[22] = target: T1, Cytochrome P450 3A4; experiment: Inhibition of CYP3A4 in human liver microsomes; assay type: ADME
[23] = Elimination half life in human; assay type: ADME, organism-based; conditions: in vivo, read-out: beta t1/2 (converted)
[24] = target: T1, Cytochrome P450 3A4; experiment: Inhibition of human recombinant CYP3A4
[25] = tested on: Rattus norvegicus; experiment: Reduction in food intake in nonfasted Sprague-Dawley rat at 3 mg/kg, po measured for 8 hrs; assay type: functional; parameters: scale not given: the % may be the effect or the level left
[26] = Fraction unbound in rat plasma at 10 uM by equilibrium dialysis method; assay type: ADME, cell-free

Cytochrome P450 2C19, sequence (P33261 whole entry): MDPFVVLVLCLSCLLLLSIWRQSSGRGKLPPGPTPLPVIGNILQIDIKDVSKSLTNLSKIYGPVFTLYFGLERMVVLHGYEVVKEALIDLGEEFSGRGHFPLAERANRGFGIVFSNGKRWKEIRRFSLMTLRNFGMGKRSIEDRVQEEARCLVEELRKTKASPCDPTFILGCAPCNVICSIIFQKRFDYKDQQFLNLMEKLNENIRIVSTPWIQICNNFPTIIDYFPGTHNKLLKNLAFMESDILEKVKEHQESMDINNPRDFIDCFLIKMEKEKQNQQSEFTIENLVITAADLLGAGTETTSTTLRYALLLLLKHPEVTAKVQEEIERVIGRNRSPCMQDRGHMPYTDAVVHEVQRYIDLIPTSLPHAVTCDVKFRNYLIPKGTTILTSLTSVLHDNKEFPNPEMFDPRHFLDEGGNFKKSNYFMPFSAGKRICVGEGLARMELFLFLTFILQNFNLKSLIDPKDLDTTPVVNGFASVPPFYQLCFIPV
Cytochrome P450 2C9, sequence (P11712 whole entry): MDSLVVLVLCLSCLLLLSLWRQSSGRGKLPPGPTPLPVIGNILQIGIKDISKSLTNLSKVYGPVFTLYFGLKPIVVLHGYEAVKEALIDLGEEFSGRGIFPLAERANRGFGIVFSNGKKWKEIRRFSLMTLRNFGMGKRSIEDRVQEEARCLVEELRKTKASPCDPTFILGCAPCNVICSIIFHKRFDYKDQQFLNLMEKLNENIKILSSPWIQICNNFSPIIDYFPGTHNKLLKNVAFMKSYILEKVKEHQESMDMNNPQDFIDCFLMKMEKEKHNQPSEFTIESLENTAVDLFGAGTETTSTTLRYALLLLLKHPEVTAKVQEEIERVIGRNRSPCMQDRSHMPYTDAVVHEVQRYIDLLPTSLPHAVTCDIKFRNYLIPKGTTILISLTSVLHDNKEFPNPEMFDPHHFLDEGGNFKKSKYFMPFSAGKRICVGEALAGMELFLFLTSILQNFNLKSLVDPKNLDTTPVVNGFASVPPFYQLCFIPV
T1 sequence (P08684 whole entry): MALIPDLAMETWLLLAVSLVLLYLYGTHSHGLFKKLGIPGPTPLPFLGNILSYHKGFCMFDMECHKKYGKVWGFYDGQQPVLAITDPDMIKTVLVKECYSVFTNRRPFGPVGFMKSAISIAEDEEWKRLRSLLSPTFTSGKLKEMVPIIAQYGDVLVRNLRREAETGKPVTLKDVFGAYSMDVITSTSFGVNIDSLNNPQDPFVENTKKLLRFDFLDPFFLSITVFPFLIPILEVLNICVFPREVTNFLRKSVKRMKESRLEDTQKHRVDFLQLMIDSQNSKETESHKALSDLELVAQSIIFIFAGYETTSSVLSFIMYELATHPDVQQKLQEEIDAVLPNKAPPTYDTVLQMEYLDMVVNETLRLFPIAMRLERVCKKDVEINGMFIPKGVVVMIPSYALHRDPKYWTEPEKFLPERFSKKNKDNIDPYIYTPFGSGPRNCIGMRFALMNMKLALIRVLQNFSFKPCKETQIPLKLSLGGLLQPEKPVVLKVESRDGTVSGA
Cannabinoid receptor 1, sequence (P21554 whole entry): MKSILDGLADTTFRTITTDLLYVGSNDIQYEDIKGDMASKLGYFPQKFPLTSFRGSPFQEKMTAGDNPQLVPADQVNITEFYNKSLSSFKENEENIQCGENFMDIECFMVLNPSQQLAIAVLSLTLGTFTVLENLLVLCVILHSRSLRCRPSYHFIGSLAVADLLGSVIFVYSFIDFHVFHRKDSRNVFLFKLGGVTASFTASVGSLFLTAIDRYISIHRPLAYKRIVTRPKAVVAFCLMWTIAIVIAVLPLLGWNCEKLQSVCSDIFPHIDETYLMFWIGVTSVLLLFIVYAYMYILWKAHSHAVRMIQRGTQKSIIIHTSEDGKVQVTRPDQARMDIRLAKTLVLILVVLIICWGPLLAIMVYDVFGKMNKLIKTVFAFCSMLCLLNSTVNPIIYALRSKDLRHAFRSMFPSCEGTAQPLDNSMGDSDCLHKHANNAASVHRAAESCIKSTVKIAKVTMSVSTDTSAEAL

Work on `Cn1c(=O)c(-c2ccc(Cl)cc2)c(-c2ccncc2)c2nn(Cc3ccc(C(F)(F)F)nc3)c(=O)n21` yielded a Ki [1] of 18 nM, a logP [2] of 3.5 and a minimal effective dose [3] of 1 mg/kg. The half-life [4] was 35 h and the solubility [5] was 1 µg/mL (≈ 1.95 µM).
`CCCn1nc2c(-c3ccc(Cl)cc3)c(-c3ccc(C#N)cc3)c(=O)n(Cc3ccc(C(F)(F)F)nc3C)n2c1=O` gave a Ki [1] of 1.7 nM, a logP [2] of 5.1 and a half-life [4] of 29 h. The clearance [6] was 29 mL/min/kg and the CLH [7] was 0.17 nmol/min/mg.
For `CCn1nc2c(-c3ccc(Cl)cc3)c(-c3ccncc3)c(=O)n(Cc3ccc(C(F)(F)F)nc3C)n2c1=O`, the Ki [1] was 4.5 nM, the logP [2] was 3.9 and the half-life [4] was 5 h. For the same molecule, the minimal effective dose [8] was 10 mg/kg, the Activity [9] was 51% and the IC50 [10] was 2600 nM. It also gave an IC50 [11] of 4200 nM, an IC50 [12] of 3000 nM and an Activity [13] of 43%. The Activity [14] was 4%, the Cmax [15] was 4 µM and the AUC at 24 h [16] was 48 µM·h. The bioavailability [17] was 50%, the bioavailability [18] was 40% and the bioavailability [19] was 15%. The half-life [20] was 38 h, the half-life [21] was 6 h and the IC50 [22] was 9100 nM.
Molecule `O=c1[nH]n2c(=O)n(Cc3ccc(C(F)(F)F)nc3)nc2c(-c2ccncc2)c1-c1ccc(Cl)cc1` has a Ki [1] of 4000 nM and a logP [2] of 2.5.
Work on `C[C@H](NC(=O)C(C)(C)Oc1ccc(C(F)(F)F)cn1)[C@@H](Cc1ccc(Cl)cc1)c1cccc(C#N)c1` [TARANABANT] yielded a half-life [23] of 72 h.
`CCNC1(C(N)=O)CCN(c2ncnc3c2nc(-c2ccccc2Cl)n3-c2ccc(Cl)cc2)CC1` [OTENABANT] showed a half-life [23] of 120 h.
Work on `CCn1nc2c(-c3ccc(Cl)cc3)c(-c3ccncc3F)c(=O)n(Cc3ccc(C(F)(F)F)nc3C)n2c1=O` yielded a Ki [1] of 3.2 nM, a logP [2] of 4.3 and an IC50 [10] of 5000 nM. The IC50 [11] was 14000 nM and the IC50 [24] was 7000 nM.
With `CCc1nc(C(F)(F)F)ccc1Cn1c(=O)c(-c2ccc(C#N)cc2)c(-c2ccc(Cl)cc2)c2nn(CC)c(=O)n21` the Ki [1] was 1.6 nM, the logP [2] was 5 and the CLH [7] was 0.152 nmol/min/mg.
In the case of `CCn1nc2c(-c3ccc(C)cc3)c(-c3ccc(C#N)cc3)c(=O)n(Cc3ccc(C(F)(F)F)nc3C)n2c1=O`, the Ki [1] is reported as 2.9 nM, the logP [2] is reported as 4.6 and the CLH [7] is reported as 0.052 nmol/min/mg.
In the case of `Cn1nc2c(-c3ccc(Cl)cc3)c(-c3ccncc3)c(=O)n(Cc3ccc(C(F)(F)F)nc3)n2c1=O`, the Ki [1] is reported as 28 nM, the half-life [4] is reported as 6 h and the minimal effective dose [8] is reported as 3 mg/kg. For the same molecule, the Activity [25] was 21%, the IC50 [10] was 4300 nM and the IC50 [11] was 1900 nM. The solubility [5] was 40 µg/mL (≈ 78 µM).
Molecule `CCn1nc2c(-c3ccc(Cl)cc3)c(-c3ccncc3)c(=O)n(Cc3ccc(C(F)(F)F)nc3)n2c1=O` has a Ki [1] of 15 nM, a logP [2] of 4 and a half-life [4] of 2.4 h. It also gave a clearance [6] of 37 mL/min/kg, an IC50 [10] of 11000 nM and an IC50 [11] of 4900 nM. It also gave an IC50 [24] of 18000 nM.
`CCn1nc2c(-c3ccc(Cl)cc3)c(-c3ccc(CO)nc3)c(=O)n(Cc3ccc(C(F)(F)F)nc3C)n2c1=O` gave a Ki [1] of 5 nM, a logP [2] of 3.6 and a half-life [4] of 1.1 h. It also gave a half-life [20] of 7 h, a half-life [21] of 9 h and a fraction unbound at 10 µM [26] of 0.09.
`Cc1nn2c(=O)n(Cc3ccc(C(F)(F)F)nc3)nc2c(-c2ccncc2)c1-c1ccc(Cl)cc1` gave a Ki [1] of 210 nM and a logP [2] of 3.3.
In the case of `CCn1nc2c(-c3ccc(Cl)cc3)c(-c3ccc(C#N)cc3)c(=O)n(Cc3ccc(C)cc3)n2c1=O`, the Ki [1] is reported as 12 nM and the logP [2] is reported as 5.2.

Source: ChEMBL document CHEMBL3259698, “Reductions in log P improved protein binding and clearance predictions enabling the prospective design of cannabinoid receptor (CB1) antagonists with desired pharmacokinetic properties” (J Med Chem, 2013)
